Tested on: DYT1 knockin (Tor1a^delGAG/+) murine embryonic fibroblasts (MEFs)
Assay: Untargeted LC/MS/MS proteomics of EVs from DYT1 MEFs exposed 24 hours to drug, compared with untreated DYT1 (Het) MEFs
Format: cell-based, mouse
Method: Methods for isolation and purification of exosomes and extracellular vesicles (EV) were extensively reviewed. Experiments were performed to arrive at a robust and reproducible protocol. The protocol used herein is that set forth in Théry et al, 2006, which is incorporated by reference for it teaching of this protocol. This protocol involves depleting serum-derived EVs from cell culture media by overnight ultracentrifugation and exchanging media for 1% FBS EV-depleted media. Media is then collected from cells following a 24-hour conditioning period and EVs are isolated by 18-hour ultracentrifugation at 100,000 g (FIG. 1A).
EVs were isolated from media of cultured murine embryonic fibroblasts (MEFs) prepared in-house according to protocols described by Xu 2005 from DYT1 knockin mice (Tor1a^delGAG/+) (Goodchild R E, et al. (2005) Neuron. 48:923-932) and littermate wild-type (WT) controls. The cultured MEFs from the DYT1 mice were exposed for 24 hours to Ritonavir (RTV) while the MEFs from WT mice were exposed to vehicle, ISRIB, or Salubrinal (SAL). The EVs isolated from these WT cells and DYT1 were characterized by untargeted proteomics and RNA-seq to identify differentially expressed proteins and RNAs as candidate biomarkers. Experimenter and Proteomics core staff were blinded to genotype of cell cultures throughout preparation and analysis phases.
Samples were first normalized to 20 μg and spiked with undigested casein at a total of 40 fmol/μg, 80 fmol/μg, or 160 fmol/μg, then reduced with 10 mM dithiolthreitol for 30 minute at 80° C. and alkylated with 20 mM iodoacetamide for 30 minutes at room temperature. Next, the samples were supplemented with a final concentration of 1.2% phosphoric acid and 741 μL of S-Trap (Protifi) binding buffer (90% MeOH/100 mM […]). Proteins were trapped on the S-Trap, digested using 20 ng/μL sequencing grade trypsin (Promega) for 1 hour at 47° C., and eluted using 50 mM TEAB, followed by 0.2% FA, and lastly using 50% CAN/0.2% FA. All samples were then lyophilized to dryness and resuspended in 40 μL 1% TFA/2% acetonitrile containing 12.5 fmol/μL yeast alcohol dehydrogenase (ADH_YEAST). A QC Pool was created from 3 uL of each sample. All QC Pools were run periodically throughout the acquisition period.
Quantitative LC/MS/MS was performed on 2 μL of each sample, using a nanoAcquity UPLC system (Waters Corp) coupled to a Thermo Orbitrap Fusion Lumos high resolution accurate mass tandem mass spectrometer (Thermo) via a nanoelectrospray ionization source. Briefly, the sample was first trapped on a Symmetry C18 20 mm×180 μm trapping column (5 μL/min at 99.9/0.1 v/v water/acetonitrile), after which the analytical separation was performed using a 1.8 μm Acquity HSS T3 C18 75 μm×250 mm column (Waters Corp.) with a 90 minute linear gradient of 5% to 30% acetonitrile with 0.1% formic acid at a flow rate of 400 nanoliters/minute (nL/min) with a column temperature of 55° C. Data collection on the Fusion Lumos mass spectrometer was performed in a data-dependent acquisition (DDA) mode of acquisition with a r=120,000 (@ m/z 200) full MS scan from m/z 375-1500 with a target AGC value of 2e5 ions. MS/MS scans were acquired at Rapid scan rate (Ion Trap) with an AGC target of 5e3 ions and a max injection time of 100 ms. The total cycle time for MS and MS/MS scans was 2 seconds. A 20 second dynamic exclusion was employed to increase depth of coverage. The total analysis cycle time for each sample injection was approximately 2 hours.

## CC(C)c1nc(CN(C)C(=O)N[C@H](C(=O)N[C@@H](Cc2ccccc2)C[C@H](O)[C@H](Cc2ccccc2)NC(=O)OCc2cncs2)C(C)C)cs1 [RTV, Ritonavir]
EV protein Sptan1 (P16546)
  Abs Z Score Sum (Geno + RTV): 6.02
EV protein Spthn1 Q62261
  Abs Z Score Sum (Geno + RTV): 6.23
EV protein Srsf7 Q8BL97
  Abs Z Score Sum (Geno + RTV): 5.72
EV protein Ssb (P32067)
  Abs Z Score Sum (Geno + RTV): 5.45
  RTV Direction Opposite dE?: yes
EV protein Ssbp1 (Q9CYR0)
  Abs Z Score Sum (Geno + RTV): 12.21
  RTV Direction Opposite dE?: yes
EV protein Svep1 (A2A0A0)
  RTV Direction Opposite dE?: yes
EV protein Tars (Q9D0R2)
  Abs Z Score Sum (Geno + RTV): 9.50
EV protein Tra2b (P62996)
  Abs Z Score Sum (Geno + RTV): 6.63
  RTV Direction Opposite dE?: yes
EV protein Ube2n P61089
  Abs Z Score Sum (Geno + RTV): 8.62
EV protein Upf1 (Q9..)
  Abs Z Score Sum (Geno + RTV): 9.02
EV protein Usol Q9Z1Z0
  Abs Z Score Sum (Geno + RTV): 12.14
EV protein Vapa (Q9WV55)
  Abs Z Score Sum (Geno + RTV): 8.93
  RTV Direction Opposite dE?: yes
EV protein: 26S proteasome non-ATPase regulatory subunit 8
  Direction Opposite dE?: yes
EV protein: 60S [?] subunit biogenesis protein [?] homolog
  Direction Opposite dE?: yes
EV protein: 60S ribosomal protein [?]
  Direction Opposite dE?: yes
EV protein: 116 kDa [?] small nuclear ribonucleoprotein component
  Direction Opposite dE?: yes
EV protein: AP-3 complex subunit [?]
  Direction Opposite dE?: yes
EV protein: ATP-dependent RNA helicase [?]
  Direction Opposite dE?: yes
EV protein: Acyl-protein thioesterase 2
  Direction Opposite dE?: yes
EV protein: Alpha-crystallin B chain
  Direction Opposite dE?: yes
EV protein: Anaphase-promoting complex subunit 2
  Direction Opposite dE?: yes
EV protein: Anaphase-promoting complex subunit 4
  Direction Opposite dE?: yes
EV protein: Anaphase-promoting complex subunit 5
  Direction Opposite dE?: yes
EV protein: Calponin-3
  Direction Opposite dE?: yes
EV protein: Cell [?] cycle protein [?] homolog
  Direction Opposite dE?: yes
EV protein: Cell division cycle protein 27 homolog
  Direction Opposite dE?: yes
EV protein: Choline transporter-like protein 1
  Direction Opposite dE?: yes
EV protein: Coiled-coil domain-containing protein 22
  Direction Opposite dE?: yes
EV protein: Complement C1q [?] -related protein 3
  Direction Opposite dE?: yes
EV protein: Cullin-2
  Direction Opposite dE?: yes
EV protein: Cullin-5
  Direction Opposite dE?: yes
EV protein: Cullin-7
  Direction Opposite dE?: yes
EV protein: Cytosolic purine [?] -nucleotidase
  Direction Opposite dE?: yes
EV protein: DNA [?] (r264)
  Direction Opposite dE?: yes
EV protein: DNA [?] licensing factor MCM4
  Direction Opposite dE?: yes
EV protein: DNA ligase 1
  Direction Opposite dE?: yes
EV protein: DNA replication licensing factor MCM5
  Direction Opposite dE?: yes
EV protein: DNA replication licensing factor [?]
  Direction Opposite dE?: yes
EV protein: DNA-directed RNA polymerase II subunit RPB1
  Direction Opposite dE?: yes
EV protein: DNA-directed RNA polymerase II subunit RPB2
  Direction Opposite dE?: yes
EV protein: DNA-directed RNA polymerase II subunit RPB3
  Direction Opposite dE?: yes
EV protein: DNA-directed RNA polymerase [?] subunit RPA2
  Direction Opposite dE?: yes
EV protein: DNA-directed RNA polymerases I, II, and III subunit RPABC3
  Direction Opposite dE?: yes
EV protein: DNA-directed RNA polymerases I, II, and III subunit [?]
  Direction Opposite dE?: yes
EV protein: Developmentally-regulated GTP-binding protein 2
  Direction Opposite dE?: yes
EV protein: Double-strand-break repair protein rad21 homolog
  Direction Opposite dE?: yes
EV protein: Dual specificity mitogen-activated protein kinase kinase 4
  Direction Opposite dE?: yes
EV protein: Dynactin subunit 4
  Direction Opposite dE?: yes
EV protein: E3 ubiquitin-protein ligase [?]
  Direction Opposite dE?: yes
EV protein: Elongin-B
  Direction Opposite dE?: yes
EV protein: Extended synaptotagmin-1
  Direction Opposite dE?: yes
EV protein: Gamma-tubulin complex component 2
  Direction Opposite dE?: yes
EV protein: General vesicular transport factor p115
  Direction Opposite dE?: yes
EV protein: Glucose-6-phosphate 1-dehydrogenase [?]
  Direction Opposite dE?: yes
EV protein: Glutathione S-transferase omega-1
  Direction Opposite dE?: yes
EV protein: Glycosylated lysosomal membrane protein
  Direction Opposite dE?: yes
EV protein: Golgi reassembly-stacking protein 2
  Direction Opposite dE?: yes
EV protein: Heterogeneous nuclear ribonucleoprotein H
  Direction Opposite dE?: yes
EV protein: Histone-arginine methyltransterase CARM1
  Direction Opposite dE?: yes
EV protein: Immunity-related GTPase family M protein 1
  Direction Opposite dE?: yes
EV protein: Importin-7
  Direction Opposite dE?: yes
EV protein: Inositol monophosphate 1
  Direction Opposite dE?: yes
EV protein: Insulin-like growth factor 1 receptor
  Direction Opposite dE?: yes
EV protein: Integrin beta- 3
  Direction Opposite dE?: yes
EV protein: Lupus [?] protein homolog
  Direction Opposite dE?: yes
EV protein: Lysine-specific histone demethylase [?]
  Direction Opposite dE?: yes
EV protein: Mediator [?] RNA polymerase II transcription subunit 23
  Direction Opposite dE?: yes
EV protein: Metastasis-associated protein [?] (r222)
  Direction Opposite dE?: yes
EV protein: Metastasis-associated protein [?] (r261)
  Direction Opposite dE?: yes
EV protein: Microtubule-associated protein [?]
  Direction Opposite dE?: yes
EV protein: N-alpha-acetyltransferase 10
  Direction Opposite dE?: yes
EV protein: Nerine arginine-rich splicing factor [?]
  Direction Opposite dE?: yes
EV protein: Nuclear [?] complex protein [?]
  Direction Opposite dE?: yes
EV protein: Nuclear cap-binding protein subunit 1
  Direction Opposite dE?: yes
EV protein: Nuclear receptor-binding protein
  Direction Opposite dE?: yes
EV protein: NudC domain-containing protein 1
  Direction Opposite dE?: yes
EV protein: Phospholipase D3
  Direction Opposite dE?: yes
EV protein: Phosphoribosyl pyrophosphate synthase-associated protein 1
  Direction Opposite dE?: yes
EV protein: Probable ubiquitin carboxyl-terminal hydrolase [?]
  Direction Opposite dE?: yes
EV protein: Proenkephalin-A
  Direction Opposite dE?: yes
EV protein: Protein O-GlcNAcase
  Direction Opposite dE?: yes
EV protein: Protein RMD5 homolog A
  Direction Opposite dE?: yes
EV protein: Protein [?] 14 homolog
  Direction Opposite dE?: yes
EV protein: Protein [?] (r160)
  Direction Opposite dE?: yes
EV protein: Protein disulfide-isomerase A4
  Direction Opposite dE?: yes
EV protein: RNA-binding protein [?]
  Direction Opposite dE?: yes
EV protein: Ran-binding protein 10
  Direction Opposite dE?: yes
EV protein: Ras-related protein Rab-6A
  Direction Opposite dE?: yes
EV protein: Ribosome biogenesis protein BOP1
  Direction Opposite dE?: yes
EV protein: Ribosome production factor 2 homolog
  Direction Opposite dE?: yes
EV protein: Serine threonine-protein phosphatase 2A 56 kDa regulatory subunit gamma isoform
  Direction Opposite dE?: yes
EV protein: Sorting nexin-1
  Direction Opposite dE?: yes
EV protein: Splicing factor 3B subunit 4
  Direction Opposite dE?: yes
EV protein: Structural maintenance of [?] protein 2
  Direction Opposite dE?: yes
EV protein: Transformer-2 protein homolog beta
  Direction Opposite dE?: yes
EV protein: Trascriptional activator protein [?] -alpha
  Direction Opposite dE?: yes
EV protein: Ubiquitin-conjugating enzyme [?]
  Direction Opposite dE?: yes
EV protein: WD repeat-containing protein [?]
  Direction Opposite dE?: yes
EV protein: [?] (r162)
  Direction Opposite dE?: yes
EV protein: [?] -1 (r154)
  Direction Opposite dE?: yes
EV protein: [?] -1 (r232)
  Direction Opposite dE?: yes
EV protein: [?] -associated membrane protein-associated protein A
  Direction Opposite dE?: yes
EV protein: [?] -promoting complex subunit 1
  Direction Opposite dE?: yes
EV protein: [?] -related [?] -associated actin-dependent regulator [?] chromatin subfamily A member 5
  Direction Opposite dE?: yes
EV protein: [?] complex subunit 2
  Direction Opposite dE?: yes
EV protein: [?] kinase
  Direction Opposite dE?: yes
EV protein: [?] membrane protein 2
  Direction Opposite dE?: yes
EV protein: [?] myosin- [?]
  Direction Opposite dE?: yes
EV protein: [?] repeat-containing protein 5A
  Direction Opposite dE?: yes
EV protein: [?] ubiquitin-protein ligase [?]
  Direction Opposite dE?: yes
EV protein: [?] von Willebrand factor type A, [?] and pentraxin domain-containing protein 1
  Direction Opposite dE?: yes
EV protein: p21-activated protein kinase-interacting protein 1
  Direction Opposite dE?: yes

Source: patent publication US20230332232A1, “COMPOSITIONS AND METHODS FOR DIAGNOSING AND TREATING A DYSTONIA” (Duke University, priority 2020, published 2023)
